The record followed here is PMC9253268 (Frontiers in Immunology, 2022).

Molecules are shown by their SMILES.

One assay deals with AIA-M rat model. The assay is described as follows: Histology of knee joints of AIA-M rats (H&E, safranin O fast green, Masson trichrome). Type of assay: in vivo. To be noted: all p < 0.05. The procedure: The viscera indexes were calculated by the weight of the thymus, spleen, liver, and kidney relative to total […]. Histological changes were examined using hematoxylin and eosin (H&E), safranin O-fast green (Solarbio, Beijing, China), and Masson trichrome staining (Baso, Wuhan, China) according to routine protocols. Please see detailed information on the protocol in Supplementary Materials Section 5 . […]
after BHGZD administration (5), respectively.
The rats were acclimatized to an apparatus consisting of individual perspex boxes. With the aid of syringe (1mL), 500μL acetone was sprayed gently from a short distance to the middle of the plantar surface of hind paw. […] The amount of time that rats were licking and/or shaking the hind paw was recorded during 5min after acetone application and was used as an index of nocifensive response for cold hypersensitivity (6). The licking and/or shaking time was measured at 0, 5, 10, 15, 25th day after BHGZD administration, […]
For thermal-induced hyperalgesia, the rats were placed for 30minin an apparatus consisting of individual perspex boxes with Hargreaves radiant heat apparatus (Ugo Basile Srl, Comerio VA, Italy) and an infrared radiant heat (40W) source was directed to middle part of the plantar surface of the hind paw. […] The paw withdrawal latency was measured at 0, 5, 10, 15, 25th day after BHGZD administration, respectively. […]

Assay [1] deals with NLRP3 inflammasome-induced pyroptosis. The experiment in a line: NLRP3 inflammasome-induced pyroptosis markers in AIA-M rats (TUNEL, IHC, Western blotting, ELISA). The settings on record: all p < 0.05. Format: in vivo, rat. As to the method:
The occurrence of pyroptosis in both MH7A cells and synovium tissues in AIA-M rats was determined by in situ TUNEL staining (TUNEL Andy Fluor™ 594 Apoptosis Detection Kit, ABP Biosciences, Wuhan, China) in accordance with the manufacturer’s protocol. Fluorescence images were visualized and photographed with inverted fluorescence microscopes (MF53, MSHOT, Guangzhou, China; Olympus, BX51, Tokyo, Japan). Detailed information on TUNEL assay is provided in Supplementary Materials Section 18 .
To detect the expression levels of NLPR3/ASC of the knee joints in AIA-M rats and corresponding treatment groups, immunohistochemical staining was carried out using a DAB kit (Cat No. AR1027, Boster Biological Technology Co., Ltd., Wuhan, China) and a rabbit/mouse two-step detection kit (Cat No. SV0002/SV0001, Boster Biological Technology Co., Ltd., Wuhan, China) according to the routine protocols. Immunohistochemistry quantification was performed using ImageJ (Image Progressing and Analysis in Java, version 1.42q, https://imagej.nih.gov/ij/), following the ImageJ User Guide. […]
Cell apoptosis was determined by in situ terminal deoxynucleotidyl transferase-mediated dUTP-biotin nick end-labeling reaction (TUNEL) staining (TUNEL Andy Fluor™ 594 Apoptosis Detection Kit, ABP Biosciences, Wuhan, China) in accordance with the […]

With `CN(Cc1cnc2nc(N)nc(N)c2n1)c1ccc(C(=O)N[C@@H](CCC(=O)O)C(=O)O)cc1` [MTX, methotrexate], the “histopathological changes of knee joints (inflammatory cell infiltration, cartilage and bone destruction, synovial hyperplasia)” value in the assay on AIA-M rat model is recorded as “apparently reversed”. Moreover, in assay [1], the “activities of GSDMD-NT in sera and its levels in knee joints” value is reported as “reduced”; the “activity of LDH in the sera” value is given as “significantly decreased”.
